The target in one experiment is T1, human GCase (Homo sapiens, UniProt P04062).
T1 construct: human GCase in healthy volunteers; endogenous in cells
T1 sequence (P04062 40-536): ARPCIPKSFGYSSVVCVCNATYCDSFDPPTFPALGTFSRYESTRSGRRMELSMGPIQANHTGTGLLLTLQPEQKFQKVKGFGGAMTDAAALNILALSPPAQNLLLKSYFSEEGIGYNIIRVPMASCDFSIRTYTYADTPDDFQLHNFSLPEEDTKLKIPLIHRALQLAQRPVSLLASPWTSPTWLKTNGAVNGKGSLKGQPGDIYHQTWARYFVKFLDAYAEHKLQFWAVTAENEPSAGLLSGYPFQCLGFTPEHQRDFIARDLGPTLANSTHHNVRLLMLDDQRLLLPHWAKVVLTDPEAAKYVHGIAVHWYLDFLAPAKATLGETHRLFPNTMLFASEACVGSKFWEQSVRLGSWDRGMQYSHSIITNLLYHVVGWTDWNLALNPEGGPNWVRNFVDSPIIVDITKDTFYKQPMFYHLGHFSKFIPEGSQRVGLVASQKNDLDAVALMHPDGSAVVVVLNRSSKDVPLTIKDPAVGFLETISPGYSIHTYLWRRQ
The experiment in a line: Phase 1 clinical trials, GCase activity in healthy volunteers. The format is in vivo. The source says: (§1) In the absence of the “pharmacological chaperone,” the mutated enzyme protein misfolds in the ER (Ishii et al., Biochem. Biophys. Res. Comm. 1996; 220: 812-815), is retarded in its maturation to a final product, and is subsequently degraded by the ER-associated degradation mechanism. Homozygous mutant GCase is associated with the lysosomal storage disease Gaucher disease.

Experiment [1] deals with GCase. The experiment in a line: Phase 2 clinical trials, GCase activity in Gaucher patients expressing certain missense mutations. The format is in vivo, human. To be noted: Gaucher patients expressing certain missense mutations that create misfolded GCase.
Text: as §1

Experiment [2] relates to GCase. The experiment in a line: Mouse model of Gaucher disease expressing mutations in the Gba gene. The following applies: in vivo, unpublished data.
Text: as §1

Another experiment deals with mutant GCase. The following applies: in vitro, fibroblasts from Gaucher patients; cited from earlier work.

Structures can show the parent of a compound that is named as a salt.

Regarding `OC[C@H]1CNC[C@@H](O)[C@@H]1O` [IFG tartrate], the “increase of the activity of human GCase” value at human GCase is listed as “up to 3.5 fold”. Moreover, in the experiment on GCase [1], the GCase activity entry is “increase in GCase activity”.

`OC[C@H]1CNC[C@@H](O)[C@@H]1O` [IFG, (3R,4R,5R)-3,4-dihydroxy-5-hydroxymethyl-piperidine]: in the experiment on GCase [2], the GCase activity result is “increases GCase activity” and the phenotype entry was “improves the phenotype”. The “activity of mutant GCase” value with mutant GCase is recorded as “increase the activity of mutant GCase”.

Values taken from patent US9481700B2, “Method for preparing isofagomine and its derivatives” (Amicus Therapeutics, Inc., priority 2007, dated 2016).
